From article PMC7049616 (Acta Pharmaceutica Sinica. B, 2019)

Tests used:
TEL-PDGFRb-BaF3 = test: cells; conditions: 72 h
TEL-FGFR4-BaF3 = test: Anti-proliferation assay; format: cell-based; conditions: 72 h
Pharmacokinetics study = format: in vivo, Sprague–Dawley rats; conditions: male, Sprague-Dawley, rat, plasma
TEL-cKIT-BaF3 = test: cells; conditions: 72 h
[1] = Acute toxicity study, single oral dose, 7 days observation; format: in vivo, ICR mice; conditions: for toxicity observation in acute toxicity study: ICR mice; for Number of deaths (death/total): female ICR mice, 7 days
P210-BaF3 = test: Anti-proliferation assay; format: cell-based; conditions: 72 h
TEL-CSF1R-BaF3 = test: Anti-proliferation assay; format: cell-based; conditions: 72 h
BaF3 = test: Anti-proliferation assay; format: cell-based; conditions: Mus musculus, BaF3, 72 h
TEL-EPHA1-BaF3 = test: Anti-proliferation assay; format: cell-based; conditions: 72 h
TEL-EPHA2-BaF3 = test: Anti-proliferation assay; format: cell-based; conditions: 72 h
TEL-PDGFRa-BaF3 = test: cells; conditions: 72 h
TEL-RET-BaF3 = test: cells; conditions: 72 h
TEL-FGFR3-BaF3 = test: Anti-proliferation assay; format: cell-based; conditions: 72 h
TEL-FLT3-BaF3 = test: cells; conditions: 72 h
TEL-FGFR2-BaF3 = test: Anti-proliferation assay; format: cell-based; conditions: 72 h
HUVEC cells = conditions: after 12 h
TEL-VEGFR3-BaF3 = test: Anti-proliferation assay; format: cell-based; conditions: 72 h
TEL-BMX-BaF3 = test: Anti-proliferation assay; format: cell-based; conditions: 72 h
TEL-VEGFR1-BaF3 = test: Anti-proliferation assay; format: cell-based; conditions: 72 h
TEL-FGFR1-BaF3 = test: cells; conditions: 72 h

CCN(CC)CCNC(=O)c1c(C)[nH]c(/C=C2\C(=O)Nc3ccc(F)cc32)c1C [Sunitinib]
GI50 (TEL-PDGFRb-BaF3): < 1 nM
GI50 (TEL-FGFR4-BaF3): 2820 nM
AUC(0-inf) (Pharmacokinetics study; iv, 1 mg/kg): 145 ± 39.6 ng·h/mL
AUC(0-t) (Pharmacokinetics study; iv, 1 mg/kg): 143 ± 40.3 ng·h/mL
Cmax (Pharmacokinetics study; iv, 1 mg/kg): 236 ± 66.8 ng/mL
MRT last (Pharmacokinetics study; iv, 1 mg/kg): 0.98 ± 0.04 h
Tmax (Pharmacokinetics study; iv, 1 mg/kg): 0.33 h
half-life (Pharmacokinetics study; iv, 1 mg/kg): 1.05 ± 0.34 h
bioavailability (Pharmacokinetics study; oral, 10 mg/kg): 75.7%
AUC(0-inf) (Pharmacokinetics study; po, 10 mg/kg): 1100 ± 96.7 ng·h/mL
AUC(0-t) (Pharmacokinetics study; po, 10 mg/kg): 927 ± 108 ng·h/mL
Cmax (Pharmacokinetics study; po, 10 mg/kg): 175 ± 21.7 ng/mL
MRT last (Pharmacokinetics study; po, 10 mg/kg): 7.63 ± 0.3 h
Tmax (Pharmacokinetics study; po, 10 mg/kg): 1.25 ± 1.06 h
half-life (Pharmacokinetics study; po, 10 mg/kg): 1.38 ± 0.46 h
GI50 (TEL-cKIT-BaF3): 81 nM
toxicity observation in acute toxicity study ([1]; single dose 500 mg/kg, recovered starting from day 4): apparent body weight loss
toxicity observation in acute toxicity study ([1]; single dose 1000 mg/kg): unrecovered body weight loss
toxicity observation in acute toxicity study ([1]; single dose 2000 mg/kg): mice death on day 3
Number of deaths (death/total) ([1]; single oral dose 125 mg/kg): ♀: 0/2
Number of deaths (death/total) ([1]; single oral dose 250 mg/kg): ♀: 0/2
Number of deaths (death/total) ([1]; single oral dose 500 mg/kg): ♀: 0/2
Number of deaths (death/total) ([1]; single oral dose 1000 mg/kg): ♀: 0/2
Number of deaths (death/total) ([1]; single oral dose 2000 mg/kg): ♀: 2/2
GI50 (P210-BaF3): 1460 nM
GI50 (TEL-CSF1R-BaF3): 11 nM
GI50 (BaF3): 2560 nM
GI50 (TEL-EPHA1-BaF3): 3210 nM
GI50 (TEL-EPHA2-BaF3): 1270 nM
GI50 (TEL-PDGFRa-BaF3): 1 nM
GI50 (TEL-RET-BaF3): 110 nM
GI50 (TEL-FGFR3-BaF3): 370 nM
GI50 (TEL-FLT3-BaF3): 32 nM
GI50 (TEL-FGFR2-BaF3): 4 nM
HUVEC migration in wound-healing assay (HUVEC cells): less migrated HUVEC cells
GI50 (TEL-VEGFR3-BaF3): 570 nM
GI50 (TEL-BMX-BaF3): 3020 nM
GI50 (TEL-VEGFR1-BaF3): 350 nM
GI50 (TEL-FGFR1-BaF3): 1680 nM
